In paper PMC11876007, “Design and Synthesis of Hydroxamate-Based Matrix Metalloproteinase-2 Inhibitors for Anti-Photoaging” (Journal of Microbiology and Biotechnology, 2025):
Where “and” joins values, the source holds several entries; their conditions need not be identical. Equal entries are not always repeated. Entries after “also recorded” stand apart in the source; their conditions may differ.

Experiments:
MMP-1 = biological target: T1, MMP-1 (Homo sapiens, UniProt P03956); assay: In vitro MMP-1 inhibition assay (Abcam kit ab139443); type: biochemical; settings: for MMP-1 inhibition (in words): 500 nM, Fig. 3A
T1 construct: purchased Abcam ab139443
T1 sequence (P03956 100-269 limits assumed): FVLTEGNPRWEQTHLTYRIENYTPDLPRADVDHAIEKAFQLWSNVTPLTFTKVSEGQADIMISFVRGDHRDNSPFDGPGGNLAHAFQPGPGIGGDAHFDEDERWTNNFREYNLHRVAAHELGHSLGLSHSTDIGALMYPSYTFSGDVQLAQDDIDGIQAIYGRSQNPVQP
Description: (§1) Test inhibitors were incubated with MMP enzymes and assay buffer at 37 °C for 30 min. Enzyme reaction was initiated by adding substrate, and MMP activity was measured by monitoring optical density (OD) at 412 nm for 20 min at 1-min intervals. The residual activity (%) was calculated as: residual activity = (Vinhibitor/Vcontrol) × 100. The reaction velocity (V) in OD/min were determined by the slope of a line fit to the linear portion of the measured values.

MMP-9 = biological target: T2, MMP-9 (Homo sapiens, UniProt P14780); assay: Zymogram assay, MMP-9 in HaCaT cell conditioned media; type: biochemical; settings: keratinocyte-conditioned media; 50 nM developing phase and 500 nM 48 h, Fig. 4B and 4D
T2 construct: endogenous in cells; host or cells: HaCaT keratinocytes (conditioned medium)
T2 sequence (P14780 94-707): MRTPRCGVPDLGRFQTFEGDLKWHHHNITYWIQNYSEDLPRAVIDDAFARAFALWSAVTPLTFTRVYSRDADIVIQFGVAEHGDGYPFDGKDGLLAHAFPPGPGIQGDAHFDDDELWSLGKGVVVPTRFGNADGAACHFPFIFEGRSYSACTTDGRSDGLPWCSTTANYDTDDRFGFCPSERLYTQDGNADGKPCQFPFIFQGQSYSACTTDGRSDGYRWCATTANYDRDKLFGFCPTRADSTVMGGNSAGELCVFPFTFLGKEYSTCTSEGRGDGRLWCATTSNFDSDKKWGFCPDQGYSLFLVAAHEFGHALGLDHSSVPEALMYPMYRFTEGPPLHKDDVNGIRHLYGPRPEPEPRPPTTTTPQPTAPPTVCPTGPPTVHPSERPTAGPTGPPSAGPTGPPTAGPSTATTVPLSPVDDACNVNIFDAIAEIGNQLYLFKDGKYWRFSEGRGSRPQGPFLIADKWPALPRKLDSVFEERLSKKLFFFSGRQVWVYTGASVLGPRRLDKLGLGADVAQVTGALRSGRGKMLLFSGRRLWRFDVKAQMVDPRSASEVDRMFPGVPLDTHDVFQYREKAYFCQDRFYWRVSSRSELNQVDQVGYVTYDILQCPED

NHF cells = assay: Gelatin degradation assay (fluorescent gelatin, NHF cells); type: cell-based, human; settings: 1 μM, four days, fluorescent-gelatin-coated plates
Description: Gelatin digestion was assessed using the QCM™ Gelatin Invadopodia Assay (#ECM670) (Sigma-Aldrich, USA). Plates were first coated with poly-L-lysine, activated with glutaraldehyde, and then coated with fluorescein-labelled gelatin. NHF cells were seeded onto the fluorescent gelatin-coated plates and incubated for 4 days. After incubation, the cells were fixed with formaldehyde and stained with DAPI for normalization based on cell number. Fluorescent gelatin levels were measured by detecting fluorescent intensity at an excitation wavelength of 492 nm and an emission wavelength of 518 nm using a Bio Tek Synergy H1 fluorescence reader (Agilent Technologies, USA). The residual gelatin (RG) was calculated by subtracting the fluorescent value of the wells with seeded cells from the values of wells without cells. This was normalized using the DAPI fluorescence to account for cell numbers per well. Gelatin degradation (%) was determined as: Gelatin degradation = (RGinhibitor/RGcontrol) × 100.

MMP-2 = biological target: T3, MMP-2 (Homo sapiens, UniProt P08253); assay: In vitro MMP-2 inhibition assay (Abcam kit ab139446); type: biochemical; settings: for Selectivity of inhibition, MMP-2 over MMP-1 (in words): tested at 500 nM for MMP-1 and 50 nM for MMP-2; for IC50: apparent IC50, concentration-dependent inhibition, Fig. 2B; for MMP-2 inhibition (in words): 50 nM, Fig. 3A
T3 construct: purchased Abcam ab139446
T3 sequence (P08253 110-465 limits assumed): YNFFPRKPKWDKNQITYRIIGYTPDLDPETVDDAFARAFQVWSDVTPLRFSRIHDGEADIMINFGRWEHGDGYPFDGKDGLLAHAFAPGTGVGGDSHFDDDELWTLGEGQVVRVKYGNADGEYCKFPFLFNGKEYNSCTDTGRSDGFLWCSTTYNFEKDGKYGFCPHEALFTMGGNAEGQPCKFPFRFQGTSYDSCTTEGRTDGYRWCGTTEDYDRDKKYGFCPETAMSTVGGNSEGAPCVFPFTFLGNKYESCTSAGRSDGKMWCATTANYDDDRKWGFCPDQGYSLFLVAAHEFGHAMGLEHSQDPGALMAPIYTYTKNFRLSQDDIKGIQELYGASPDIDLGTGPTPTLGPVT
Description: as §1

SMILES: O=C(NO)C1CCCCN1S(=O)(=O)c1ccccc1 (centres unmarked) [Compound 1ac, N-hydroxy-1-(phenylsulfonyl)piperidine-2-carboxamide]
- MMP-1 inhibition (in words) (MMP-1): maintained MMP-1 inhibition

SMILES: O=C(NO)C1CCCCN1S(=O)(=O)c1ccc(-c2ccccc2)cc1 (centres unmarked) [Compound 1ad, 1-([1,1'-biphenyl]-4-ylsulfonyl)-N-hydroxypiperidine-2-carboxamide]
- MMP-9 inhibition, zymogram (in words) (MMP-9): effectively inhibited both MMP-2 and MMP-9
- Gelatin degradation per cell (in words) (NHF cells): statistically significant reductions

SMILES: CCCCOc1ccc(S(=O)(=O)N2CCCCC2C(=O)NO)cc1 (centres unmarked) [Compound 1af, 1-((4-butoxyphenyl)sulfonyl)-N-hydroxypiperidine-2-carboxamide]
- MMP-9 inhibition, zymogram (in words) (MMP-9): effectively inhibited both MMP-2 and MMP-9
- Gelatin degradation per cell (in words) (NHF cells): statistically significant reductions

SMILES: Cc1ccc(S(=O)(=O)N2CCCCC2C(=O)NO)cc1 (centres unmarked) [Compound 1aj, N-hydroxy-1-tosylpiperidine-2-carboxamide]
- Selectivity of inhibition, MMP-2 over MMP-1 (in words) (MMP-2): selective inhibition of MMP-2

SMILES: CC(C)C(NS(=O)(=O)c1ccc(-c2ccccc2)cc1)C(=O)NO (centres unmarked) [Compound 1b, 2-([1,1'-biphenyl]-4-sulfonamido)-N-hydroxy-3-methylbutanamide]
- MMP-1 inhibition (in words) (MMP-1): weak MMP-1 inhibition
- IC50 (MMP-1; apparent IC50, concentration-dependent inhibition, Fig. 2B): 188 nM
- IC50 (MMP-2): 5.1 nM and < 10 nM
- Selectivity of inhibition, MMP-2 over MMP-1 (in words) (MMP-2): selectively inhibited MMP-2 over MMP-1

SMILES: CCCCOc1ccc(S(=O)(=O)NC(C(=O)NO)C(C)C)cc1 (centres unmarked) [Compound 1d, 2-((4-butoxyphenyl)sulfonamido)-N-hydroxy-3-methylbutanamide]
- IC50 (MMP-2): 8.1 nM and < 10 nM
- Selectivity of inhibition, MMP-2 over MMP-1 (in words) (MMP-2): selectively inhibited MMP-2 over MMP-1; also recorded: strong selectivity for MMP-2

SMILES: CCCCOc1ccc(S(=O)(=O)NC(CC(C)C)C(=O)NO)cc1 (centres unmarked) [Compound 1j, 2-((4-butoxyphenyl)sulfonamido)-N-hydroxy-4-methylpentanamide]
- IC50 (MMP-2): 7.8 nM and < 10 nM
- Selectivity of inhibition, MMP-2 over MMP-1 (in words) (MMP-2): selectively inhibited MMP-2 over MMP-1; also recorded: strong selectivity for MMP-2

SMILES: O=C(NO)C(Cc1ccccc1)NS(=O)(=O)c1ccc(-c2ccccc2)cc1 (centres unmarked) [Compound 1n, 2-([1,1'-biphenyl]-4-sulfonamido)-N-hydroxy-3-phenylpropanamide]
- MMP-2 inhibition (in words) (MMP-2): lower inhibitory activity against MMP-2

SMILES: CCCCOc1ccc(S(=O)(=O)NC(Cc2ccccc2)C(=O)NO)cc1 (centres unmarked) [Compound 1p, 2-((4-butoxyphenyl)sulfonamido)-N-hydroxy-3-phenylpropanamide]
- MMP-2 inhibition (in words) (MMP-2): lower inhibitory activity against MMP-2

SMILES: O=C(NO)C1CCCN1S(=O)(=O)c1ccc(-c2ccccc2)cc1 (centres unmarked) [Compound 1t, 1-([1,1'-biphenyl]-4-ylsulfonyl)-N-hydroxypyrrolidine-2-carboxamide]
- MMP-1 inhibition (in words) (MMP-1): weaker MMP-1 inhibition
- IC50 (MMP-2): 18.9 nM
- Selectivity of inhibition, MMP-2 over MMP-1 (in words) (MMP-2): selectively inhibited MMP-2 over MMP-1

SMILES: CCCCOc1ccc(S(=O)(=O)N2CCCC2C(=O)NO)cc1 (centres unmarked) [Compound 1v, 1-((4-butoxyphenyl)sulfonyl)-N-hydroxypyrrolidine-2-carboxamide]
- IC50 (MMP-2): 32.6 nM
- Selectivity of inhibition, MMP-2 over MMP-1 (in words) (MMP-2): selectively inhibited MMP-2 over MMP-1

SMILES: CC(=NO)c1ccc(S(=O)(=O)N2CCCCC2C(=O)NO)cc1 (centres unmarked) [Compound 4an, N-hydroxy-1-((4-(1-(hydroxyimino)ethyl)phenyl)sulfonyl)piperidine-2-carboxamide]
- MMP-9 inhibition, zymogram (in words) (MMP-9): effectively inhibited both MMP-2 and MMP-9
- Gelatin degradation per cell (in words) (NHF cells): statistically significant reductions
